According to US5006512A, “Therapeutic usages of inhibitors for a potassium efflux channel” (priority 1988, dated 1991):
Entries after “also recorded” stand apart in the source; their conditions may differ.

Columns and labels:
[1] = tested on: sickle red blood cells; test: Formation of irreversibly sickled cells by sickling-unsickling cycling in vitro; assay type: cell-based
Text: The inventor previously developed a method to produce irreversibly sickled cells (ISC, which have irreversibly denatured membranes) by exposing sickle red blood cells to a repeated sickling-unsickling cycling in vitro. He used this system to determine the efficacy of a drug in protecting cell membranes (Ohnishi, Br. J. Haematol. 55:665-671, 1983). […] These heavy cells were collected, the amount measured, and the percentage of production calculated (Table 3). As shown in the Table, MR-103 inhibited the formation of irreversibly denatured cells at an extremely low concentration. Even at 20 nM, it inhibited the production of denatured cell almost 50%. […] The subfragment comound MR-117 was also found to have a remarkable effect (Table 4). At a concentration of 60 nM, it inhibited the formation of denatured cells by more than 50%.

[2] = tested on: mice; test: Acute toxicity (LD50) in mice, i.p.; assay type: in vivo
[3] = tested on: brain ischemia; test: Brain focal ischemia, water content of hemisphere (brain edema); assay type: in vivo, rat; conditions: 0.14 mg/kg i.v. thirty minutes prior to ischemic insult; 1 hour focal ischemia
Method: (§1) (a) Surgical procedures: Adults male Sprague-Dwaley rats weighing 250-300 g were used in these studies. Anesthesia was induced and maintained with halothane (1.0-2.5%) via closely fitted facial mask. Bilateral common carotid arteries (CCA) were exposed gently and the right CCA was ligated in two places by 4-0 silk suture. To expose the right middle cerebral artery (MCA), the temporal muscles were cut and retracted, then, a small temporal craniotomy (2=2 mm) was performed with a microdrill. Under a microscope, the dura matter was opened with a 26 guage needle, and the MCA was ligated by 10-0 suture with a square knot. Immediately, the left CCA was occluded by a microaneurysmal clip. After the operation, the animal was returned to the cage. One hour later, the left CCA clip was released under awake condition. The sham-operated control was produced in a similar procedure, except for the ligation and clipping of vessels. The operation was usually finished within 30 min.
(b) Water content and ionic analysis: After fixed time interval (1, 3, and 7 days), the animal was sacrificed and the excised cerebral hemispheres were placed in preweighed crucible and measured an wet weight (W.W) with a chemical balance (Mettler, AE 100). […] The water content (% wet weight) was calculated by (W.W -D.W)/W.W. […]

[4] = tested on: brain focal ischemia; test: Brain focal ischemia, motor performance test; assay type: in vivo, rat; conditions: 0.14 mg/kg
Method: as §1, with “The sham-operated control was produced in a similar procedure, except for the ligation and clipping of vessels. The operation was usually finished within 30 min.” left out
(c) Motor performance test: The disturbance of motor function was evaluated by the total score obtained from inclined plate test, balance beam test and prehensile test. These motor performance tests were dsesigned to quantify the motor weakness in the global ischemia rats. […] The animal was placed at the highest position of the plate and the time which it could stay on the plate was measured untill 30 sec. […] The time spent on the rod was recorded untill 30 sec. […] The time spent in hanging on the rope was measured untill 30 sec. […]

SMILES: CSCC[C@@H]1NC(=O)[C@H](CS)NC(=O)[C@H](CCCCN)NC(=O)CNC(=O)[C@H](CCCNC(=N)N)NC(=O)[C@H](CO)NC(=O)[C@H]([C@@H](C)O)NC(=O)[C@H](CC(N)=O)NC(=O)[C@H](Cc2c[nH]cn2)NC(=O)[C@H](CC(C)C)NC(=O)[C@H](CCCNC(=N)N)NC(=O)[C@H](CCC(N)=O)NC(=O)[C@@H]2CSSC[C@@H](C(=O)N[C@@H](Cc3ccc(O)cc3)C(=O)N[C@@H](CO)C(=O)O)NC(=O)[C@H](CCCNC(=N)N)NC(=O)[C@H](CSSC[C@H](N)C(=O)N[C@@H](Cc3c[nH]c4ccccc34)C(=O)N[C@@H](CO)C(=O)N[C@@H](C(C)C)C(=O)N2)NC(=O)[C@H](CCCCN)NC(=O)[C@H](CCCCN)NC(=O)[C@H](CC(N)=O)NC1=O [MR-117]
- Irreversibly sickling cells ([1]; 60 nM drug during cycling): 14.8 percentages
- Reversibly sickling cells ([1]; 60 nM drug during cycling): 85.2 percentages
- Irreversibly sickling cells ([1]; 100 nM drug during cycling): 10.3 percentages
- Reversibly sickling cells ([1]; 100 nM drug during cycling): 89.7 percentages
- Irreversibly sickling cells ([1]; 200 nM drug during cycling): 0 percentages
- Reversibly sickling cells ([1]; 200 nM drug during cycling): 100 percentages
- Acute toxicity (LD50) [2]: 0.92 mg/kg
- increase of water content of ischemia-exposed hemisphere [3]: inhibited the increase of water content; also recorded: much reduced
- effect on motor performance after brain focal ischemia (in words) ([4]; 1 hour focal ischemia, 3 and 7 days): remarkable recovery effect
- Motor Score ([4]; 3 days after ischemia, scale 0-12, no drug 6.93, sham 11.13): 9.50 ± 0.56
